Entries after “also recorded” stand apart in the source; their conditions may differ.
Tests used:
[1] = in vitro; assay type: in vitro ADME; details: rat
Procedure: Separate peaks representing the intact peptide and its metabolites are plotted as a function of time. The area under the curve for selected peaks may be measured and compared to appropriate standards to quantify the concentration of γ-Glu-Cys and its metabolites.
Loss of γ-Glu-Cys from the incubation medium, and the appearance of Cys and oxidized γ-Glu-Cys were quantified using HPLC to measure degradation, hydrolysis, and oxidation respectively. The ½-time for degradation of γ-Glu-Cys is 11.3±1.2 mins. Values are mean±SD. N=3 separate experiments.
Loss of γ-Glu-D-Cys from the incubation medium, and the appearance of D-Cys and oxidized γ-Glu-D-Cys were quantified using HPLC to measure degradation, hydrolysis, and oxidation respectively. Values are mean±SD. N=3 separate experiments.
Comparing the initial rates of degradation confirmed that γ-Glu-D-Cys is degraded more slowly (0.12±0.02 vs 0.22±0.02 mM/min, P=0.006). Values are mean±SD. N=3 separate experiments.
Values are mean±SD. N=3 separate experiments. * indicates significant difference at P<0.05.
As a measure of stability, the initial velocities of degradation for γ-Glu-Cys and γ-Glu-D-Cys were compared and found to be 0.22±0.03 vs. 0.12±0.02 (mM/min), respectively.
FIG. 11 is a graph showing the temporal comparison of degradation, oxidation and hydrolysis of γ-Glu-Cys. FIG. 12 is a graph showing the temporal comparison of degradation, oxidation, and hydrolysis of the analog γ-Glu-D-Cys. FIG. 13 is a graph comparing the degradation of γ-Glu-Cys and γ-Glu-D-Cys, as measured by the loss of intact peptide as a function of time of incubation. FIG. 14 is a graph comparing the hydrolysis of γ-Glu-Cys and γ-Glu-D-Cys, by appearance of cysteine and D-cysteine respectively, as a function of time. Mean±SE; * indicates significant difference at P<0.05. FIG. 15 is a graph comparing the oxidation of γ-Glu-Cys and γ-Glu-D-Cys, by appearance of oxidized γ-Glu-Cys and oxidized γ-Glu-D-Cys respectively, as a function of time. Mean±SE. * indicates P<0.05.

[2] = test system: Human red blood cells; assay: Spontaneous hemolysis of human red blood cells (hemoglobin release at 540 nm); assay type: cell-based; details: 37° C.; for difference in cytoprotective effect, γ-Glu-Cys vs γ-Glu-D-Cys: 1 mM each; for difference in cytoprotective effect, γ-Glu-Cys vs γ-Glu-D-Cys / toxicity (increase of hemolysis): 190 minutes; for spontaneous hemolysis / toxicity (increase of hemolysis): 1 mM; for spontaneous hemolysis: 5% red blood cells, phosphate buffer pH 7.4, 190 minutes
Procedure: Human red blood cells (5%) were incubated in isotonic phosphate buffer, pH 7.4 for 190 minutes at 37° C. in the presence or absence of γ-Glu-Cys and γ-Glu-D-Cys, and spontaneous hemolysis was quantified by measuring hemoglobin release spectrophotometrically at 540 nm. […] Values are mean±SE for 4 observations.

[3] = Oxiselect Total Antioxidant Capacity Assay in rat serum (1-9%) in Tris Buffer; details: 0.0625, 0.125, 0.3125 and 0.625 mM, averaged
Procedure: (§1) FIGS. 16a and 16b indicate that the antioxidant capacities of γ-Glu-Cys and γ-Glu-D-Cys are the same using an in vitro assay. Antioxidant capacities were measured with the Oxiselect Total Antioxidant Capacity Assay Kit, using uric acid as a standard. […] Values are mean±SE. N=3 separate experiments for the 0.78, 1.56, and 3.13 mM concentrations. N=2 separate experiments for the 0.39 mM concentration. *P=0.047.

[4] = Oxiselect Total Antioxidant Capacity Assay in human plasma (90-99%)
Procedure: as §1

[5] = test system: cultured blood-brain barrier endothelial cells; assay: Lactate dehydrogenase (LDH) release from cultured blood-brain barrier endothelial cells under ischemia and reperfusion; assay type: cell-based, bovine; details: 1 mM; ischemia 1.5 hrs, reperfusion 3.0 hrs; P<0.05
Source text: FIG. 7 is a bar graph of data showing that the antioxidant gamma-glutamyl cysteine (γ-Glu-Cys) inhibits cell damage to cerebral capillary endothelial cells cultured under conditions of ischemia and reperfusion.
Cultured blood-brain barrier cells can be used as an in vitro cellular model to confirm that Na/Ca exchange may operate in the reverse direction under conditions simulating reperfusion, following transient ischemia. Cerebral capillary endothelial cells are isolated from bovine brain by the method of Meresse et al. (42), or purchased from Cell Systems Corporation (Kirkland, Wash.). Cells are grown and maintained (up to passage 5) on collagen type I- and fibronectin-coated tissue culture flasks in Eagle's minimal essential medium supplemented with 10% fetal bovine serum (54, 62). To form a polarized endothelium, cells are seeded on cluster plate inserts and incubated in the presence of an astrocyte conditioned medium supplemented with cAMP, as previously described (4, 54). […]
Cultured blood-brain barrier endothelial cells were incubated under conditions of ischemia (1.5 hours) followed by reperfusion (3.0 hours), in the presence and absence of γ-glutamyl cysteine (γ-Glu-Cys). Cellular damage was detected by measuring release of lactate dehydrogenase (LDH) into the incubation medium, following treatment. […]

[6] = test system: cultured bovine blood-brain barrier endothelial cells; assay: Intracellular calcium (Fluo-4 fluorescence) in cultured blood-brain barrier cells under simulated ischemia-reperfusion; assay type: cell-based; details: 100 μM DMA (Na/H antiport inhibition), listed as DMA
Procedure: FIG. 4 is a bar graph of data showing that when cerebral capillary endothelial cells are exposed to ischemic conditions, intracellular calcium concentration increases and remains elevated during reperfusion; the elevation in intracellular calcium is prevented by pharmacological inhibition of the Na/H antiporter. Cultured bovine blood-brain barrier cells were treated as described above (FIG. 2). […] The rise in intracellular calcium observed during reperfusion was prevented by inhibiting Na/H antiport (100 μM DMA). *P<0.05 compared to control. +P<0.05 compared to reperfusion. Values are mean±SD. Intracellular calcium was measured with fluorescent imaging, using Fluo-4.
FIG. 5 is a bar graph of data showing that when cerebral capillary endothelial cells are exposed to ischemic conditions, intracellular calcium concentration increases and remains elevated during reperfusion; the elevation in intracellular calcium is prevented by pharmacological inhibition of reverse movement of the Na/Ca exchanger. Cultured bovine blood-brain barrier cells were treated as described above (FIG. 2). […] The rise in intracellular calcium observed during reperfusion was prevented by inhibiting reverse movement of Na/Ca exchange (20 μM KB-R7943). *P<0.05 compared to control. +P<0.05 compared to reperfusion. Values are mean±SD. Intracellular calcium was measured with fluorescent imaging, using Fluo-4. […]

[7] = test system: cultured bovine blood-brain barrier endothelial cells; assay: Intracellular sodium (sodium green fluorescence) in cultured blood-brain barrier cells under simulated ischemia-reperfusion; assay type: cell-based; details: 100 μM; ischemia 90 mins, reperfusion 30 mins
Procedure: FIG. 3 is a bar graph of data showing that when cerebral capillary endothelial cells are exposed to ischemic conditions, intracellular sodium concentration increases and remains elevated during reperfusion; the elevation in intracellular sodium is prevented by pharmacological inhibition of the Na/H antiporter. Cultured bovine blood-brain barrier cells were exposed to conditions simulating ischemia and reperfusion, by incubating in 95% N2/5% CO2 without glucose (90 mins) at pH 6.8, followed by room air/5% CO2 with 5.6 mM glucose (30 mins) at pH 7.4, respectively. […] The rise in intracellular sodium observed during reperfusion was prevented by inhibiting Na/H exchange (100 μM dimethylamiloride, DMA). *P<0.05. Values are mean±SD. […] Intracellular sodium was measured with fluorescent imaging, using sodium green. […]
Cultured bovine blood-brain barrier endothelial cells were exposed to conditions simulating ischemia and reperfusion as described in Example 2. Sodium fluorescence is measured in cultured bovine blood-brain barrier endothelial cells under the following conditions: 1) control (120 minutes), 2) simulated ischemia (120 minutes), 3) simulated ischemia (90 minutes) followed by simulated reperfusion (30 minutes), 4) simulated ischemia/reperfusion (90/30 minutes), in the presence of an inhibitor (dimethylamiloride, 100 μM) of Na/H exchange. […]

[8] = test system: caspase 3 activity in cultured bovine blood-brain barrier endothelial cells; assay: Caspase 3 activity in cultured blood-brain barrier cells under simulated ischemia-reperfusion; assay type: cell-based; details: 100 μM; 30 mins ischemia, 24 hours reperfusion; P<0.05 from I/Rep
Source text: FIG. 6 is a bar graph of data showing that ischemia followed by reperfusion of cultured cerebral capillary endothelial cells results in an increase of caspase 3 activity that is inhibited by an inhibitor of Na/H exchange. Caspase 3 activity is expressed in cultured blood-brain barrier cells exposed to conditions simulating ischemia-reperfusion. […] I/Rep is ischemia plus reperfusion; I/R Na inh is ischemia-reperfusion with inhibitor; I/R Cp inh is ischemia-reperfusion with a specific caspase inhibitor. Values are mean±SD for 3 observations.
Cultured blood-brain barrier cells can be exposed to conditions simulating ischemia and reperfusion, by a method similar to that reported in the literature (25). The precise composition of the incubation medium varies, depending upon the experimental protocols. In general, however, cells are incubated at 37° C. first in an ischemic medium (without glucose, pH 6.8) equilibrated with an atmosphere of 95% N2 and 5% CO2, followed by simulated reperfusion in a control medium (5.6 mM glucose, pH 7.4) equilibrated with room air and 5% CO2. […]
Caspase 3 activity was measured in cultured bovine blood-brain barrier endothelial cells under control conditions (24.5 hours), simulated ischemia (24.5 hours), or ischemia (0.5 hours) followed by reperfusion (24 hours, I/Rep) as described in Example 2. […]

[9] = 0.39 mM in human plasma (90-99%), N=2, P=0.047
[10] = 0.78, 1.56, and 3.13 mM in human plasma (90-99%), N=3

| Structure (SMILES) | initial rate (velocity) of degradation ([1]; 6.25 mM) [mM/min] | difference in cytoprotective effect, γ-Glu-Cys vs γ-Glu-D-Cys [2] | spontaneous hemolysis [2] | toxicity (increase of hemolysis) [2] | antioxidant capacity (uric acid equivalents), γ-Glu-Cys vs γ-Glu-D-Cys [3] | antioxidant capacity, γ-Glu-Cys vs γ-Glu-D-Cys [4, 9] | antioxidant capacity, γ-Glu-Cys vs γ-Glu-D-Cys [4, 10] | intactness in serum for 1 minute ([1]; 1 min, 6.25 mM) | half-life at 6.25 mM ([1]; serum) [min] | LDH release (cellular damage) [5] | rise in intracellular calcium observed during reperfusion [6] | rise in intracellular sodium observed during reperfusion [7] | increase in caspase 3 activity [8] |
| --- | --- | --- | --- | --- | --- | --- | --- | --- | --- | --- | --- | --- | --- |
| N[C@@H](CCC(=O)N[C@H](CS)C(=O)O)C(=O)O [γ-Glu-D-Cys, γ-glutamyl-D-cysteine] | 0.12 ± 0.02 | no significant difference in their cytoprotective effect | significantly inhibit spontaneous hemolysis | not toxic under the experimental conditions | not to be significantly different from each other | marginal difference | a significant difference was not detected |  |  |  |  |  |  |
| N[C@@H](CCC(=O)N[C@@H](CS)C(=O)O)C(=O)O [γ-Glu-Cys, γ-glutamyl cysteine] |  | no significant difference in their cytoprotective effect | significantly inhibit spontaneous hemolysis | not toxic under the experimental conditions | not to be significantly different from each other | marginal difference | a significant difference was not detected | remains primarily intact for 1 minute in serum | 11.3 ± 1.2 | reduced LDH release; also recorded: cellular damage was significantly reduced |  |  |  |
| CN(C)c1nc(N)c(C(=O)N=C(N)N)nc1Cl [dimethylamiloride] |  |  |  |  |  |  |  |  |  |  | prevented; also recorded: inhibits the rise in intracellular calcium | prevented; also recorded: inhibits the rise in intracellular sodium | inhibited |
